From ChEMBL document CHEMBL1136677, “Dermorphin tetrapeptide analogues with 2',6'-dimethylphenylalanine (Dmp) substituted for aromatic amino acids have high mu opioid receptor binding and biological activities” (Bioorg Med Chem Lett, 2003)

Key:
Mus musculus [1] = experiment: Antinociceptive activity in mice after subcutaneous injection in the second phase of formalin test; assay type: functional; conditions: sc
Mus musculus [2] = experiment: Antinociceptive activity in mice after subcutaneous injection in the first phase of formalin test; assay type: functional; conditions: sc
Mu-type opioid receptor [3] = target: Mu-type opioid receptor (Rattus norvegicus, UniProt P33535); experiment: Ability to displace [3H]DAMGO from mu opioid receptor
[4] = target: Delta-type opioid receptor (Rattus norvegicus, UniProt P33533); experiment: Ability to displace [3H]-deltorphin II from delta opioid receptor
[5] = target: Delta-type opioid receptor (Mus musculus, UniProt P32300); experiment: Ability to inhibit electrically induced contractions of mouse vas deferens having delta opioid receptors tested in vitro; assay type: tissue-based
Mu-type opioid receptor [6] = target: Mu-type opioid receptor (Cavia porcellus, UniProt P97266); experiment: Ability to inhibit electrically induced contractions of guinea pig ileum having mu opioid receptors tested in vitro; assay type: tissue-based
[7] = target: Delta-type opioid receptor (Mus musculus) (UniProt P32300); experiment: Selectivity ratio of IC50(MVD) to IC50(GPI) was determined
[8] = target: Mu-type opioid receptor (Cavia porcellus) (UniProt P97266); experiment: Affinity towards mu opioid receptor using CTAP as antagonist in guinea pig ileum; assay type: functional, tissue-based
[9] = target: Delta-type opioid receptor (Mus musculus) (UniProt P32300); conditions: Vas deferens
Description: Affinity towards delta opioid receptor using CTAP as antagonist in mouse vas deferens

[10] = target: Delta-type opioid receptor (Mus musculus) (UniProt P32300); conditions: Vas deferens; remark: listed apart in the source
Description: Affinity towards delta opioid receptor using N,N(Me)2Dmt-Tic-OH as antagonist in mouse vas deferens

[11] = target: Prothrombin (Homo sapiens) (UniProt P00734); experiment: (§1) Selectivity ratio of binding affinity of delta opioid receptor to mu opioid receptor
[12] = target: Delta-type opioid receptor (Rattus norvegicus) (UniProt P33533); experiment: as §1
Chain of Delta-type opioid receptor (Rattus norvegicus) (P33533 whole entry): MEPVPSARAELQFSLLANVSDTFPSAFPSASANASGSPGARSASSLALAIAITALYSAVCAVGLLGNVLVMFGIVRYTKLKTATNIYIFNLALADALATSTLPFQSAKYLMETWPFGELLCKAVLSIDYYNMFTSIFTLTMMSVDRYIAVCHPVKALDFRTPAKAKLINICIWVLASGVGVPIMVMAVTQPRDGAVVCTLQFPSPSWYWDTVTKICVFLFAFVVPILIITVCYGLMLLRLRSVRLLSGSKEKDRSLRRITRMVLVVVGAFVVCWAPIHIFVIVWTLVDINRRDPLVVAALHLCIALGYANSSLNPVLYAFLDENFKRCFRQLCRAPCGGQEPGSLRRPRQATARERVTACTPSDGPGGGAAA

Chain of Delta-type opioid receptor (Mus musculus) (P32300 whole entry): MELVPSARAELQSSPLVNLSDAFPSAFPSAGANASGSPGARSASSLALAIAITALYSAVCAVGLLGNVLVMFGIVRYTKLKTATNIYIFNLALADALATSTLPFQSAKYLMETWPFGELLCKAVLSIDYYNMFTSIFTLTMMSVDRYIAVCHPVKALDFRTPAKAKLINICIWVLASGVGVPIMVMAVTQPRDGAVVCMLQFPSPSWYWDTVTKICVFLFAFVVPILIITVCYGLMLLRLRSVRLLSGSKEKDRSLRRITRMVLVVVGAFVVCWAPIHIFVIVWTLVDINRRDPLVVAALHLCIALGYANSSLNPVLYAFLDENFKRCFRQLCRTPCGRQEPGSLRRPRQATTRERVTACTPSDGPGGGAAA
Chain of Delta-type opioid receptor (Mus musculus, UniProt P32300) (P32300 whole entry): as above
Chain of Delta-type opioid receptor (Rattus norvegicus, UniProt P33533) (P33533 whole entry): as the sequence (P33533 whole entry) above
Chain of Mu-type opioid receptor (Cavia porcellus) (P97266 whole entry): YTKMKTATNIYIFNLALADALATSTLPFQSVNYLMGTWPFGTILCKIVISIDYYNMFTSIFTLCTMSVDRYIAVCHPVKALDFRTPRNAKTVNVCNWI
Chain of Mu-type opioid receptor (Cavia porcellus, UniProt P97266) (P97266 whole entry): as above
Chain of Mu-type opioid receptor (Rattus norvegicus, UniProt P33535) (P33535 whole entry): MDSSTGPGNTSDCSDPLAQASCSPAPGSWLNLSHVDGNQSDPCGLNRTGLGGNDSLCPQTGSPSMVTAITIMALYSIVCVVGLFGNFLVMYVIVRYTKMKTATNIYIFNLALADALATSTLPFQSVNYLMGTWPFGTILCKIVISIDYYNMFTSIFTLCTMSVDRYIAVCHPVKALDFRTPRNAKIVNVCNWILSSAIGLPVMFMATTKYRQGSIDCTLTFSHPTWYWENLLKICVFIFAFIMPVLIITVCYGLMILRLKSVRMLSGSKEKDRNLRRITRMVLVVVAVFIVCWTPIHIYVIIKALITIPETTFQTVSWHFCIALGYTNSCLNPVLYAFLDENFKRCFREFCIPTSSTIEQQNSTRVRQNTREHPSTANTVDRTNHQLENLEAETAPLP

SMILES: CN1CC[C@]23c4c5ccc(O)c4O[C@H]2[C@@H](O)C=C[C@H]3[C@H]1C5 [MORPHINE]
- ED50 (Mus musculus [1]): 7.32 µmol/kg
- ED50 (Mus musculus [2]): 3.81 µmol/kg

SMILES: Cc1cccc(C)c1C[C@@H](N)C(=O)N[C@H](CCCNC(=N)N)C(=O)N[C@@H](Cc1ccccc1)C(=O)NCCC(N)=O
- Ki (Mu-type opioid receptor [3]): 7.62 nM
- Ki [4]: > 2820 nM
- IC50 [5]: 1470 nM
- IC50 (Mu-type opioid receptor [6]): 320 nM

SMILES: Cc1cccc(C)c1C[C@H](NC(=O)[C@@H](CCCN=C(N)N)NC(=O)[C@@H](N)Cc1ccc(O)cc1)C(=O)NCCC(N)=O
- Ki (Mu-type opioid receptor [3]): 0.035 nM
- Ratio [7]: 16.7
- Ki [4]: 544 nM
- Ke [8]: 22.7 nM
- IC50 [5]: 27.9 nM
- Ke [9]: 11.4 nM
- ED50 (Mus musculus [1]): 0.113 µmol/kg
- Ke [10]: > 1000 nM
- IC50 (Mu-type opioid receptor [6]): 1.67 nM
- ED50 (Mus musculus [2]): 0.0986 µmol/kg
- Ratio [11]: 15500

SMILES: Cc1cccc(C)c1C[C@H](NC(=O)[C@@H](CCCN=C(N)N)NC(=O)[C@@H](N)Cc1c(C)cccc1C)C(=O)NCCC(N)=O
- Ki (Mu-type opioid receptor [3]): 0.0216 nM
- Ratio [7]: 18.2
- Ki [4]: 1690 nM
- Ke [8]: 21.3 nM
- IC50 [5]: 50.1 nM
- Ke [9]: 10.2 nM
- Ke [10]: > 1000 nM
- IC50 (Mu-type opioid receptor [6]): 2.76 nM
- Ratio [12]: 78100

SMILES: CC(C)[C@H](NC(=O)[C@H](CCC(=O)O)NC(=O)[C@H](Cc1ccccc1)NC(=O)[C@H](C)NC(=O)[C@@H](N)Cc1ccc(O)cc1)C(=O)N[C@H](C(=O)NCC(=O)O)C(C)C
- Ke [9]: > 1000 nM
- Ke [10]: 0.64 nM

SMILES: NC(=O)CCNC(=O)[C@H](Cc1ccccc1)NC(=O)[C@@H](CCCN=C(N)N)NC(=O)[C@@H](N)Cc1ccc(O)cc1
- Ratio [7]: 21.8
- Ke [8]: 26.8 nM
- Ke [9]: 21.2 nM
- ED50 (Mus musculus [1]): 0.514 µmol/kg
- Ke [10]: > 1000 nM
- ED50 (Mus musculus [2]): 0.628 µmol/kg
- Ratio [12]: 2800

SMILES: Cc1cccc(C)c1C[C@@H](N)C(=O)N[C@H](CCCN=C(N)N)C(=O)N[C@@H](Cc1ccccc1)C(=O)NCCC(N)=O
- Ratio [7]: 4.6
- Ratio [12]: > 370

SMILES: N=C(N)NCCC[C@@H](NC(=O)[C@@H](N)Cc1ccc(O)cc1)C(=O)N[C@@H](Cc1ccccc1)C(=O)NCCC(N)=O
- Ki (Mu-type opioid receptor [3]): 0.172 nM
- Ki [4]: 482 nM
- IC50 [5]: 116 nM
- IC50 (Mu-type opioid receptor [6]): 5.31 nM

SMILES: Cc1cc(O)cc(C)c1C[C@H](N)C(=O)N[C@H](CCCN=C(N)N)C(=O)N[C@@H](Cc1ccccc1)C(=O)NCCC(N)=O
- Ki (Mu-type opioid receptor [3]): 0.00205 nM
- Ratio [7]: 11.7
- Ki [4]: 1.13 nM
- IC50 [5]: 0.398 nM
- IC50 (Mu-type opioid receptor [6]): 0.034 nM
- Ratio [12]: 551

SMILES: Cc1cccc(C)c1C[C@@H](NC(=O)[C@@H](CCCN=C(N)N)NC(=O)[C@@H](N)Cc1ccc(O)cc1)C(=O)NCCC(N)=O
- Ki (Mu-type opioid receptor [3]): 0.0618 nM
- Ratio [7]: 15.4
- Ki [4]: > 2820 nM
- IC50 [5]: 305 nM
- IC50 (Mu-type opioid receptor [6]): 19.8 nM
- Ratio [12]: > 45700

SMILES: NC(=O)CCNC(=O)[C@H](Cc1ccccc1)NC(=O)[C@@H](CCCN=C(N)N)NC(=O)[C@@H](N)Cc1ccccc1
- Ki (Mu-type opioid receptor [3]): 7.17 nM
- Ratio [7]: 11.2
- Ki [4]: > 2820 nM
- IC50 [5]: 7140 nM
- IC50 (Mu-type opioid receptor [6]): 633 nM
- Ratio [12]: > 393

SMILES: Cc1cccc(C)c1C[C@H](N)C(=O)N[C@H](CCCN=C(N)N)C(=O)N[C@@H](Cc1ccccc1)C(=O)NCCC(N)=O
- Ki (Mu-type opioid receptor [3]): 0.0623 nM
- Ratio [7]: 19
- Ki [4]: 2570 nM
- Ke [8]: 25.1 nM
- IC50 [5]: 188 nM
- Ke [9]: 13.4 nM
- ED50 (Mus musculus [1]): 1.53 µmol/kg
- Ke [10]: > 1000 nM
- IC50 (Mu-type opioid receptor [6]): 9.88 nM
- ED50 (Mus musculus [2]): 1.95 µmol/kg
- Ratio [12]: 41300
